Results from article PMC4255499 (Frontiers in Physiology, 2014).

Molecular target: T1, α1-microglobulin (A1M) (Homo sapiens, UniProt P02760)
T1 construct: gene AMBP; Recombinant human A1M with an N-terminal His8-tag (tgA1M)
T1 sequence (P02760 20-203): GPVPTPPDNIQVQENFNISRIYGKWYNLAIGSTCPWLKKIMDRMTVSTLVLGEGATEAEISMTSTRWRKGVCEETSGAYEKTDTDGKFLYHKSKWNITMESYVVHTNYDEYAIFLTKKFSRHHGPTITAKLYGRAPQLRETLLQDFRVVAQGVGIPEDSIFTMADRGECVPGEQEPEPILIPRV
Assay: SPR (tgA1M captured by anti-His antibody, […] binding model); also UV/Vis titration, induced CD, native PAGE shift

SMILES: C=CC1=C(C)C2=Cc3c(C=C)c(C)c4[n]3[Fe][n]3c(c(C)c(CCC(=O)O)c3=CC3=NC(=C4)C(C)=C3CCC(=O)O)=CC1=N2 [heme]
- Kd: 7.02 µM
